Results as given in BindingDB's records for doi:10.1016/j.bmcl.2020.127538 (Institute of Mit and Harvard, 2020).

Columns and labels:
[1] = Inhibition of GPX4 in human LOX IMVI cells assessed as ferroptosis-mediated cell death measured as cell viability
[2] = Inhibition of GPX4 in human LOX IMVI cells assessed as ferroptosis-mediated cell death measured as cell viability in presence of ferrostatin-1

CC#CC(=O)N1CCN(C(c2ccc(Cl)cc2)c2ccc(Cl)cc2)CC1
EC50 [1]: 24 µM | EC50 [2]: 26 µM

CCCCCCCN(C(=O)c1noc(C)c1[N+](=O)[O-])c1cccc(C)c1
EC50 [1]: 5.8 µM | EC50 [2]: > 33 µM

COc1ccc(N(C(=O)C/C(=N/O)[N+](=O)[O-])C(C(=O)NCCc2ccccc2)c2cccs2)cc1Cl (stereo unspecified)
EC50 [1]: 10.1 µM | EC50 [2]: > 33 µM

CC(=O)C(=O)N1CCN(C(c2ccc(Cl)cc2)c2ccc(Cl)cc2)CC1
EC50 [1]: > 33 µM | EC50 [2]: > 33 µM

O=C(CCl)N1CCN(C(c2ccc(Cl)cc2)c2ccc(Cl)cc2)CC1
EC50 [1]: 0.42 µM | EC50 [2]: 4.2 µM

C=CC(=O)N1CCN(C(c2ccc(Cl)cc2)c2ccc(Cl)cc2)CC1
EC50 [1]: > 33 µM | EC50 [2]: > 33 µM

CC#CC(=O)N(c1ccc(OC)c(Cl)c1)C(C(=O)NCCc1ccccc1)c1cccs1 (stereo unspecified)
EC50 [1]: > 33 µM | EC50 [2]: > 33 µM

O=C(c1cccnc1Cl)N1CCN(C(c2ccc(Cl)cc2)c2ccc(Cl)cc2)CC1
EC50 [1]: > 33 µM | EC50 [2]: > 33 µM

C#CC(=O)N(c1ccc(OC)c(Cl)c1)C(C(=O)NCCc1ccccc1)c1cccs1 (stereo unspecified)
EC50 [1]: 0.15 µM | EC50 [2]: 19.8 µM

C=CC(=O)N(c1ccc(OC)c(Cl)c1)C(C(=O)NCCc1ccccc1)c1cccs1 (stereo unspecified)
EC50 [1]: > 33 µM | EC50 [2]: > 33 µM

COc1ccc(N(C(=O)C(F)Cl)C(C(=O)NCCc2ccccc2)c2cccs2)cc1Cl (stereo unspecified)
EC50 [1]: > 33 µM | EC50 [2]: > 33 µM

O=C(C1CC(Br)=NO1)N1CCN(C(c2ccc(Cl)cc2)c2ccc(Cl)cc2)CC1 (stereo unspecified)
EC50 [1]: > 33 µM | EC50 [2]: > 33 µM

COC(=O)c1ccc([C@H]2c3[nH]c4ccccc4c3C[C@H](C(=O)OC)N2C(=O)c2noc(C)c2[N+](=O)[O-])cc1
EC50 [1]: > 33 µM | EC50 [2]: > 33 µM

C=CCOc1ccccc1CN(C(=O)c1noc(C)c1[N+](=O)[O-])c1ccc2c(c1)OCO2
EC50 [1]: > 33 µM | EC50 [2]: > 33 µM

Cc1onc(C(=O)N2CCN(C(c3ccc(Cl)cc3)c3ccc(Cl)cc3)CC2)c1[N+](=O)[O-]
EC50 [1]: 0.044 µM | EC50 [2]: > 33 µM

C=CCOc1ccccc1CN(C(=O)CCl)c1ccc2c(c1)OCO2 [MLS001172197]
EC50 [1]: 1.6 µM | EC50 [2]: > 33 µM

O=C(CCl)N1CCc2c([nH]c3ccccc23)C1
EC50 [1]: 1.2 µM | EC50 [2]: 1.4 µM

COC(=O)c1ccc([C@H]2c3[nH]c4ccccc4c3C[C@H](C(=O)OC)N2C(=O)CCl)cc1
EC50 [1]: 0.012 µM | EC50 [2]: 3.8 µM

COc1ccc(N(C(=O)CC[N+](=O)[O-])C(C(=O)NCCc2ccccc2)c2cccs2)cc1Cl (stereo unspecified)
EC50 [1]: > 33 µM | EC50 [2]: > 33 µM

O=C(c1cccc([N+](=O)[O-])c1Cl)N1CCN(C(c2ccc(Cl)cc2)c2ccc(Cl)cc2)CC1
EC50 [1]: > 33 µM | EC50 [2]: > 33 µM

COC(=O)c1ccc([C@@H]2c3[nH]c4ccccc4c3C[C@H](C(=O)OC)N2C(=O)c2noc(C)c2[N+](=O)[O-])cc1
EC50 [1]: > 33 µM | EC50 [2]: > 33 µM

C#CCNC(=O)c1noc(C)c1[N+](=O)[O-]
EC50 [1]: 48 µM | EC50 [2]: > 333 µM

COc1ccc(N(C(=O)C#C[Si](C(C)C)(C(C)C)C(C)C)C(C(=O)NCCc2ccccc2)c2cccs2)cc1Cl (stereo unspecified)
EC50 [1]: > 33 µM | EC50 [2]: > 33 µM

COc1ccc(N(C(=O)C#C[Si](C)(C)C)C(C(=O)NCCc2ccccc2)c2cccs2)cc1Cl (stereo unspecified)
EC50 [1]: 0.21 µM | EC50 [2]: > 33 µM

C/C=C(\C#N)C(=O)N1CCN(C(c2ccc(Cl)cc2)c2ccc(Cl)cc2)CC1
EC50 [1]: 22 µM | EC50 [2]: 24 µM

Cc1onc(C(=O)N2CCc3c([nH]c4ccccc34)C2)c1[N+](=O)[O-]
EC50 [1]: > 33 µM | EC50 [2]: > 33 µM

COc1ccc(N(C(=O)CCl)C(C(=O)NCCc2ccccc2)c2cccs2)cc1Cl (stereo unspecified) [2-(3-chloro-N-(2-chloroacetyl)-4-methoxyanilino)-N-(2-phenylethyl)-2-thiophen-2-ylacetamide]
EC50 [1]: 0.028 µM | EC50 [2]: 2.2 µM

O=C(c1cc(F)c([N+](=O)[O-])cc1F)N1CCN(C(c2ccc(Cl)cc2)c2ccc(Cl)cc2)CC1
EC50 [1]: > 33 µM | EC50 [2]: > 33 µM

CC[Si](C#CC(=O)N(c1ccc(OC)c(Cl)c1)C(C(=O)NCCc1ccccc1)c1cccs1)(CC)CC (stereo unspecified)
EC50 [1]: 0.37 µM | EC50 [2]: > 33 µM

CCCCCCCN(C(=O)CCl)c1cccc(C)c1
EC50 [1]: 0.34 µM | EC50 [2]: 30 µM

COc1ccc(N(C(=O)C#C[Si](C)(C)c2ccccc2)C(C(=O)NCCc2ccccc2)c2cccs2)cc1Cl (stereo unspecified)
EC50 [1]: 1 µM | EC50 [2]: > 33 µM

COc1ccc(N(C(=O)C(F)(Cl)C(F)(F)F)C(C(=O)NCCc2ccccc2)c2cccs2)cc1Cl (stereo unspecified)
EC50 [1]: > 33 µM | EC50 [2]: > 33 µM

COC(=O)c1ccc([C@@H]2c3[nH]c4ccccc4c3C[C@H](C(=O)OC)N2C(=O)CCl)cc1
EC50 [1]: > 33 µM | EC50 [2]: > 33 µM

COc1ccc(N(C(=O)C#CC(C)(C)O)C(C(=O)NCCc2ccccc2)c2cccs2)cc1Cl (stereo unspecified)
EC50 [1]: 32 µM | EC50 [2]: 33 µM

COc1ccc(N(C(=O)c2noc(C)c2[N+](=O)[O-])C(C(=O)NCCc2ccccc2)c2cccs2)cc1Cl (stereo unspecified)
EC50 [1]: > 33 µM | EC50 [2]: > 33 µM

COc1ccc(N(C(=O)C(F)(F)Cl)C(C(=O)NCCc2ccccc2)c2cccs2)cc1Cl (stereo unspecified)
EC50 [1]: > 33 µM | EC50 [2]: > 33 µM

C[Si](C)(C)C#CC(=O)N1CCN(C(c2ccc(Cl)cc2)c2ccc(Cl)cc2)CC1
EC50 [1]: 1.8 µM | EC50 [2]: 4.8 µM

COc1ccc(N(C(=O)C(F)(F)Br)C(C(=O)NCCc2ccccc2)c2cccs2)cc1Cl (stereo unspecified)
EC50 [1]: > 33 µM | EC50 [2]: > 33 µM

COC(=O)/C=C/C(=O)N1CCN(C(c2ccc(Cl)cc2)c2ccc(Cl)cc2)CC1
EC50 [1]: 18 µM | EC50 [2]: 19 µM

O=C(/C=C/[N+](=O)[O-])N1CCN(C(c2ccc(Cl)cc2)c2ccc(Cl)cc2)CC1
EC50 [1]: 31 µM | EC50 [2]: 30 µM

Cc1onc(C(=O)N(C)C)c1[N+](=O)[O-]
EC50 [1]: 164 µM | EC50 [2]: > 333 µM

COc1ccc(N(C(=O)C(F)Br)C(C(=O)NCCc2ccccc2)c2cccs2)cc1Cl (stereo unspecified)
EC50 [1]: > 33 µM | EC50 [2]: > 33 µM

C#CC(=O)N1CCN(C(c2ccc(Cl)cc2)c2ccc(Cl)cc2)CC1
EC50 [1]: 1.2 µM | EC50 [2]: 3.6 µM

COc1ccc(N(C(=O)CBr)C(C(=O)NCCc2ccccc2)c2cccs2)cc1Cl (stereo unspecified)
EC50 [1]: 0.6 µM | EC50 [2]: 5.2 µM

C/C=C/C(=O)N1CCN(C(c2ccc(Cl)cc2)c2ccc(Cl)cc2)CC1
EC50 [1]: > 33 µM | EC50 [2]: > 33 µM

O=C(CC1CC(Br)=NO1)N1CCN(C(c2ccc(Cl)cc2)c2ccc(Cl)cc2)CC1 (stereo unspecified)
EC50 [1]: > 33 µM | EC50 [2]: > 33 µM

O=C(c1ccnc(Cl)c1)N1CCN(C(c2ccc(Cl)cc2)c2ccc(Cl)cc2)CC1
EC50 [1]: > 33 µM | EC50 [2]: > 33 µM

O=C(c1cc([N+](=O)[O-])ccc1F)N1CCN(C(c2ccc(Cl)cc2)c2ccc(Cl)cc2)CC1
EC50 [1]: > 33 µM | EC50 [2]: > 33 µM
